Source: patent US20060008506A1, “Method for preparing therapeutic ophthalmic articles using compressed fluids” (priority 2004, published 2006)

Key:
baboons = details: single dose of 125 mg/Kg; cited from earlier work
[1] = in vitro release kinetic study of impregnated Focus Dailies (Nelfilcon A) hydrogel contact lenses after three-month storage; format: physicochemical; details: for maximum cumulative amount of released Flurbiprofen: CO2, 41° C., after three months storage in 0.9% NaCl
Method: Later on, the impregnated ophthalmic article was placed in 5 ml of physiological serum (saline solution, 0.9% NaCl) inside a closed vessel. This vessel was subsequently placed inside a temperature controlled bath (at 37° C.), in order to carry out the in vitro sustained release kinetic study of the drug (Flurbiprofen). At regular time intervals (shorter time intervals at the beginning), 3 ml of the release solution (containing the released drug) were removed from the vessel and replaced by 3 ml of fresh physiological serum. The concentration of Flurbiprofen was determined by spectroscopy for each sample collected. Two Focus® […]® (Ciba Vision, Ga., USA) hydrogel contact lenses (non ionic, high hydration, FDA Group II, 69% water+31% Nelfilcon A copolymer) were separately treated in two different experiments (I and II) by means of the above-mentioned third embodiment of the process, in accordance with the invention and according to FIG. 3. In both experiments, the ophthalmic articles processed were impregnated with Flurbiprofen (CAS[5104-49-4], 97% purity, Sigma-Aldrich) using Carbon Dioxide (99.998% purity, Air Liquide). No co-solvent was added and no stirring was employed. In experiment I, the operating conditions were 41° C. and 90 bar, while in experiment II the operating conditions were 41° C. and 120 bar. In both experiments, drug solubilization was carried out for 1 hour and 30 minutes, and impregnation was carried out for 1 hour. After impregnation, the vessel was slowly depressurized (for 15 minutes) and the compressed fluid (Carbon Dioxide) was removed. The high pressure vessel was then removed from the temperature controlled bath, opened and the ophthalmic article was recovered, impregnated with Flurbiprofen. Afterwards, the two ophthalmic articles were stored and preserved in physiological serum (saline solution, 0.9% NaCl) in closed vessels, for three months. After this period, in vitro kinetic studies were carried out in respect of Flurbiprofen release, following the experimental procedures already described at Example 1.

[2] = in vitro sustained release kinetic study of impregnated Focus Monthly (Vifilcon A) hydrogel contact lens in physiological serum; format: physicochemical; details: 90.0 bar, 40.0° C.; for release time at which maximum cumulative amount was attained: 0.9% NaCl at 37° C.; for maximum cumulative amount of released Flurbiprofen: 30 min
Method: A Focus® Monthly® (Ciba Vision, Ga., USA) hydrogel contact lens (ionic, high hydration, FDA Group IV, 55% water+45% Vifilcon A copolymer) was treated by means of the above-mentioned first embodiment of the process, in accordance with the invention and according to FIG. 1. The ophthalmic article was contacted in a sealed high pressure vessel with a mixture of compressed carbon Dioxide (99.998% purity, Air Liquid), Flurbiprofen (CAS[5104-49-4], 97% purity, Sigma-Aldrich) and Ethanol (CAS[64-17-5], 99.8% purity, Fluka), as co-solvent (5% molar in respect of carbon Dioxide). The operating conditions were 90.0 bar and 40.0° C. No stirring was employed. After a 30 minute processing time, the vessel was slowly expanded (for 1.5 minutes) and the compressed fluid (carbon Dioxide) was removed. Part of the co-solvent (Ethanol) was dragged out of the system by the Carbon Dioxide, while its remaining part precipitated, as a liquid, to the bottom of the high pressure vessel. The high pressure vessel was then removed from the temperature controlled bath, opened and the ophthalmic article was recovered, impregnated with Flurbiprofen. Later on, the impregnated ophthalmic article was placed in 5 ml of physiological serum (saline solution, 0.9% NaCl) inside a closed vessel. This vessel was subsequently placed inside a temperature controlled bath (at 37° C.), in order to carry out the in vitro sustained release kinetic study of the drug (Flurbiprofen). At regular time intervals (shorter time intervals at the beginning), 3 ml of the release solution (containing the released drug) were removed from the vessel and replaced by 3 ml of fresh physiological serum. The concentration of Flurbiprofen was determined by spectroscopy for each sample collected. A Focus® Monthly® (Ciba Vision, Ga., USA) hydrogel contact lens (ionic, high hydration, FDA Group IV, 55% water+45% Vifilcon A copolymer) was treated by means of the above-mentioned first embodiment of the process, in accordance with the invention and according to FIG. 1. The ophthalmic article was contacted in a sealed high pressure vessel with a mixture of Carbon Dioxide (99.998% purity, Air Liquide) and Flurbiprofen (CAS[5104-49-4], 97% purity, Sigma-Aldrich). No co-solvent was added. The operating conditions were 90.0 bar and 40.0° C. No stirring was employed. After a 30 minute processing time, the vessel was slowly expanded (for 15 minutes) and the compressed fluid (Carbon Dioxide) was removed. The high pressure vessel was then removed from the temperature controlled bath, opened and the ophthalmic article was recovered, impregnated with Flurbiprofen. The in vitro kinetic studies concerning the release of Flurbiprofen were conducted in accordance with the experimental procedures already described at Example 1.

inflammatory processes = details: cited from earlier work
[3] = analysis of preservation and storage media after three-month storage of impregnated Focus Dailies lenses; format: physicochemical; details: for effective total mass of Flurbiprofen impregnated in the article: sum of storage and release amounts; for mass of Flurbiprofen released in preservation and storage media: three-month storage in 0.9% NaCl
Method: Afterwards, the two ophthalmic articles were stored and preserved in physiological serum (saline solution, 0.9% NaCl) in closed vessels, for three months. After this period, in vitro kinetic studies were carried out in respect of Flurbiprofen release, following the experimental procedures already described at Example 1.
The maximum cumulative amount of released Flurbiprofen was about 0.007 mg for experiment I and about 0.035 mg for experiment II. These amounts were actually attained after 7 hours of release kinetic studies. […] However, in these cases it cannot be assumed that these values correspond to the total amount of Flurbiprofen impregnated in each ophthalmic article, given that part of the impregnated drug was released in the preservation medium during the three-month storage period. Preservation and storage media were also analyzed and the mass of Flurbiprofen released therein was about 0.0030 mg for experiment I and about 0.0025 mg for experiment II. Therefore, we can assume that the effective total mass of Flurbiprofen impregnated in the two articles was 0.0100 mg and 0.0375 mg respectively for experiments I and II.

## CC(C(=O)O)c1ccc(-c2ccccc2)c(F)c1 (stereo not shown) [Flurbiprofen]
baboons
  acute toxicity: no acute toxicity
[1]; Example 3, experiment I: Focus Dailies lens, 90 bar
  maximum cumulative amount of released Flurbiprofen: about 0.007 mg
[1]; Example 3, experiment II: Focus Dailies lens, 120 bar
  maximum cumulative amount of released Flurbiprofen: about 0.035 mg
[1]; Example 3, experiments I and II
  release time at which maximum cumulative amounts were attained: 7 h
[2]; Example 1: CO2 + ethanol co-solvent
  release time at which maximum cumulative amount was attained: 24 h
[2]; Example 1: Focus Monthly lens impregnated with CO2 + 5% molar ethanol co-solvent, release in 5 ml 0.9% NaCl at 37° C.
  maximum cumulative amount of released Flurbiprofen: about 0.25 mg
[2]; Example 2: CO2, no co-solvent
  release time at which maximum cumulative amount was attained: 6 h
[2]; Example 2: Focus Monthly lens impregnated with CO2, no co-solvent, release in 0.9% NaCl at 37° C.
  maximum cumulative amount of released Flurbiprofen: about 0.11 mg
Inflammatory processes
  minimum amount of Flurbiprofen to be kept in the eye to prevent inflammatory processes: 0.03 to 0.15 µg
[3]; Example 3, experiment I (41° C., 90 bar)
  effective total mass of Flurbiprofen impregnated in the article: 0.0100 mg
[3]; Example 3, experiment I (90 bar)
  mass of Flurbiprofen released in preservation and storage media: about 0.0030 mg
[3]; Example 3, experiment II (41° C., 120 bar)
  effective total mass of Flurbiprofen impregnated in the article: 0.0375 mg
[3]; Example 3, experiment II (120 bar)
  mass of Flurbiprofen released in preservation and storage media: about 0.0025 mg
